Experimental data published in patent publication US8937038B2, “Composition containing peptide ligand that bonds with CXCR2 for treating infective and inflammatory diseases” (priority 2010, dated 2015).

Experiments:
E. coli-vaccinated mice = assay: Survival in E. coli-induced sepsis model; assay type: in vivo; details: E. coli 1×10^9 cells/mouse; 17.5 mg/kg four times from 2 hours after vaccination; compared with PBS
Experimental: Male WT ICR mice were used to evaluate a therapeutic effect of Ac-PGP. IFN-γ-deficient mice (kindly provided by Y. K. Kim at the Pohang University of Science and Technology, Pohang, Republic of Korea) were used for mechanism study. All Examples in which animals were used were performed according to the instructions with permission of the Institutional Review Board (IRB) for the care and management of laboratory animals at Dong-A University. In the case of the CLP, mice were anesthetized with pentothal sodium (50 mg/kg, intraperitoneally injected), and abdomen of each mouse was cut along a central cutting line to expose an appendix. Then, an ileocecal valve of the appendix was tied up, both surfaces of the ileocecal valve were punctured twice with a 22-gauge needle (or punctured once to measure a production amount of cytokines), and the abdomen was sutured. Sham CLP mice were treated in the same manner as described above, except that CLP of the appendix was not performed. A survival rate of the mice was monitored every day for 10 days. In the case of the LPS or E. coli model, E. coli and LPS were intraperitoneally injected at concentrations of 1×10^9 cells/mouse and 60 mg/kg, respectively. A survival rate of the mice was monitored once a day for 10 days.
In another mouse model of sepsis, a therapeutic effect of Ac-PGP was also evaluated.

CLP mice = assay: Apoptosis of immune cells (TUNEL) in CLP mice; assay type: in vivo, mouse
Experimental: First, a tissue embedded in paraffin was deparaffinized using a typical histological protocol, and performed digoxigenin-dUTP nick end labeling (TUNEL) analysis. Sections were permeated into the Triton X-100 at 4° C. for 2 minutes, and the sections were flooded in terminal deoxynucleotidyl transferase (TdT) and a TUNEL reagent at 37° C. for 60 minutes. A percentage of apoptotic cells (TUNEL-positive cells) was determined by counting 500 splenocytes under an optical microscope. Also, the tissue embedded in paraffin was deparaffinized using a typical histological protocol, and immunohistochemical analysis was performed on the microtomed sections of caspase-3 (Wang J. et al. 2001 Proc. Natl. Acad. Sci. USA 98:4038-43).
The defunctionalization of the major internal organs such as lungs was associated with the mortality after sepsis. A morphological change was observed by performing hematoxylin and eosin staining. […] Liver tissues from the CLP mice were necrotized to a higher extent, but the necrosis of the liver tissues was decreased by administration of Ac-PGP. […] Most of the apoptosis in the thymus or spleen of a CLP mouse was caused in the cortex of the thymus or spleen in which immature cells were populated. When compared with those of the sham or Ac-PGP mice, an important morphological change in apoptotic cells of the CLP mice is that small compact pyknosis containing multiple nuclear fragments were present in apoptotic lymphocytes (FIG. 7). […] The apoptosis of immune cells was also accompanied with sepsis.
The apoptosis of immune cells is associated with the mortality on sepsis. Here, the CLP was proven to remarkably increase apoptosis of splenocytes (FIG. 22). […] Apoptosis of lymphocytes was induced by activation of some major caspases including caspase-3. Therefore, not only the effect of Ac-PGP on activation of caspase-3 but also the effect of CLP activation by caspase-3 were examined (FIG. 23).

[1] = test system: bacteria in peritoneal fluids of CLP mice; assay: In vivo disinfection activity: bacterial colonies in peritoneal fluid after CLP; parameters: species or system mouse; reference not given here; details: 24 hours after the CLP; FIG. 10
Experimental: A peritoneal lavage fluid was collected 24 hours after CLP, and incubated at 37° C. overnight in a blood agar base plate (trypticase soy agar Deeps, Becton Dickinson). The number of colony forming units (CFUs) was counted according to a method disclosed in Yan J J et al. 2004 Nat. Med. 10:161-167.
A death rate by CLP is correlated with the number of bacterial colonies in a peritoneal fluid. Therefore, an effect of the Ac-PGP on removal of bacteria in a peritoneal fluid was examined. […] In vitro disinfection activity of the Ac-PGP was examined using neutrophils derived from a mouse. The mouse neutrophils were kept for an hour to phagocytize E. coli, and then stimulated with various concentrations of Ac-PGP (0.1 to 100 nM) for 20 minutes. […] A reactive oxygen species such as hydrogen peroxide was known as an important molecule participating in the disinfection activity. Therefore, an effect of Ac-PGP on production of hydrogen peroxide in the mouse neutrophils was examined. […] To examine a role of CXCR2 in production of hydrogen peroxide by the Ac-PGP, the mouse neutrophils were pretreated with a CXCR2 antagonist (SB225002) before they were treated with the Ac-PGP.

human neutrophils = assay: Disinfection activity of human neutrophils against opsonized E. coli; assay type: cell-based; details: FIG. 27
Text: All kinds of protocols used in human beings were approved by the Institutional Review Board (IRB) at Dong-A University Hospital, and prior consents were obtained from all blood donors. Peripheral blood was collected from healthy donors, and human peripheral monocytes were separated using a Histopaque-1077 gradient. Neutrophils were separated through methods such as dextran precipitation of red blood cell, hypotonic lysis, and usage of lymphocyte isolation medium gradient, as known in the related art (Bae, Y. S. et al. Blood 97, 2854-2862(2001)). The separated human leukocytes were used immediately.
The disinfection activities of the neutrophils were measured according to a method disclosed by Yan et al. (Yan J J et al. 2004 Nat. Med. 10:161-167). The neutrophils were stationarily incubated at 37° C. for an hour on a 13 mm plastic cover slip in a 60 mm plastic culture dish. The non-attached cells were removed by PBS. The attached neutrophils were stationarily incubated for an hour with 10^6 opsonized E. coli cells. The non-phagocytized E. coli cells were washed, and the number of bacteria surviving in the neutrophils was determined before and after the E. coli cells were treated with various concentrations of Ac-PGP or vehicle for an hour. A percentage of the apoptosized bacteria was calculated as follows. 100×(1−CFU Number after stimulus with Ac-PGP/CFU Number before stimulus with Ac-PGP)
Since Ac-PGP strongly promoted the disinfection activity of the mouse neutrophils, a bacteriocidal effect of the Ac-PGP on human neutrophils was examined.

Substance: acetylated-Pro-Gly-Pro [Ac-PGP]
- death rate (E. coli-vaccinated mice): death rate decreased
- apoptosis of the immune cells in the spleen (CLP mice; CLP mice, FIG. 8): remarkably suppressed
- apoptosis of the immune cells in the thymus (CLP mice; CLP mice, FIG. 9): remarkably suppressed
- apoptosis of splenocytes (CLP mice; CLP mice, FIG. 22): remarkably suppressed the apoptosis of splenocytes
- inhibitory effect of the apoptosis of splenocytes by Ac-PGP (CLP mice; IFN-γ-deficient CLP mice, FIG. 22): remarkably relieved
- number of bacterial colonies in the peritoneal fluid [1]: 82.1%
- killing of opsonified E. coli (human neutrophils; 20 nM): almost completely killed opsonified E. coli
- disinfection activity (human neutrophils; 100 nM): remarkably improved the disinfection activity
- bacterial killing by the human neutrophils (human neutrophils; various concentrations): dose-dependent effect on bacterial killing
